According to patent US4680290A, “Steroids for the treatment of hypercholesterolemia” (Hoffmann-La Roche Inc., priority 1983, dated 1987):

Assays:
[1] = tested on: intestinal resorption of cholesterol; experiment: inhibition of the intestinal resorption of cholesterol in squirrel monkeys (CHORES); format: in vivo; conditions: 100 μmol/kg p.o., [26-^14 C]-cholesterol in feed, faeces collected 2.5 days, % of control values determined prior to medication
Description: Squirrel monkeys are orally administered the substances to be investigated together with a feed containing a protein, starch, triolein and [26-^14 C]-cholesterol. Thereupon, the faeces is collected for 2.5 days. The difference between the administered and the excreted radioactive cholesterol determined in the faeces is taken as the measurement of resorbed cholesterol. The cholesterol resorption (CHORES) is expressed in percentages of the control values determined prior to the medication.
(§1) The results which have been obtained with some representative products in accordance with the invention are reproduced in the Table hereinafter. There are given for each of the compounds indicated therein the dosage administered (in μmol/kg p.o.) as well as in each case the cholesterol resorption (CHORES) determined in percentages of the cholesterol resorption in the pre-period. Moreover, the Table contains data concerning the acute toxicity of the compounds investigated (LD50 in mg/kg in the case of single oral administration to mice).

[2] = acute toxicity, single oral administration to mice; conditions: mouse, in vivo; single oral administration (p.o.) to mice
Description: as §1

SMILES	CHORES in % of the pre-period (cholesterol resorption) [1] [%]	LD50 [2] [mg/kg]
CC[C@H](CC[C@@H](C)[C@H]1CC[C@H]2[C@@H]3CC[C@H]4C[C@@H](OP(=O)([O-])OCC[N+](C)(C)C)CC[C@]4(C)[C@H]3CC[C@]12C)C(C)C [3β-Stigmastanyloxy-phosphorylcholine, 3β-stigmastanyloxy-phosphorylcholine]	36	4000
CC[C@H](/C=C/[C@@H](C)[C@H]1CC[C@H]2[C@@H]3CC=C4C[C@@H](OP(=O)([O-])OCC[N+](C)(C)C)CC[C@]4(C)[C@H]3CC[C@]12C)C(C)C [Stigmasta-5,22-dien-3β-yloxy-phosphorylcholine]	33	5000
CC(C)CCC[C@@H](C)[C@H]1CC[C@H]2[C@@H]3CC[C@H]4C[C@@H](OP(=O)([O-])OCC[N+](C)(C)C)CC[C@]4(C)[C@H]3CC[C@]12C [3β-Cholestanyloxy-phosphorylcholine]	26	5000
CC[C@H](CC[C@@H](C)[C@H]1CC[C@H]2[C@@H]3CC=C4C[C@@H](OP(=O)([O-])OCC[N+](C)(C)C)CC[C@]4(C)[C@H]3CC[C@]12C)C(C)C [Stigmast-5-en-3β-yloxy-phosphorylcholine]	52	5000
